Values of other authors, collected in patent US6051591A, “Diazabicyclooctane derivatives” (Merck Sharp & Dohme Ltd., priority 1995, dated 2000).

Experiments:
[1] = test system: human 5-HT1Dα and 5-HT1Dβ receptor subtypes; details: cf. WO-A-91/17174, Table 1
[2] = therapeutic doses

In the case of `CNS(=O)(=O)Cc1ccc2[nH]cc(CCN(C)C)c2c1` [sumatriptan], the “discrimination between human 5-HT1Dα and 5-HT1Dβ receptor subtypes” value [1] is listed as “barely discriminates” and the “adverse cardiovascular events in humans” value [2] is listed as “certain adverse cardiovascular events”.
